Measurements taken from PMC12396409, “Screening and hit evaluation of a microbial metabolite library against the pathogenic Plasmodium falciparum and Toxoplasma gondii parasites” (International Journal for Parasitology: Drugs and Drug …, 2025).
Like-named read-outs stand apart in the source and are kept apart here.

Experiments:
[1] = test system: P. falciparum 3D7 parasites; experiment: P. falciparum growth inhibition assay, 1-cycle (72 h treatment), SYBR DNA staining (library screen at 2 μg/mL and dose-response); format: cell-based, Plasmodium falciparum; conditions: for activity at 2 µg/mL: Plasmodium falciparum
[2] = test system: T. gondii RH strain (RH-Tub-eYFP) tachyzoites; experiment: microbe, parasite or virus in culture; format: cell-based, Toxoplasma gondii; conditions: 72 h, 72 h; for percent parasite growth at 2 µg/mL: Toxoplasma gondii
[3] = test system: P. falciparum 3D7 parasites; experiment: P. falciparum growth inhibition assay, 2-cycle (120 h treatment), delayed-death screen and dose-response; format: cell-based, Plasmodium falciparum; conditions: for activity at 2 µg/mL: Plasmodium falciparum
[4] = 3D7, P. falciparum, 72 h, parasite screen 2 μg/mL, % growth, replicate 1, read-out: Pf_72h_%Growth_Rep1
[5] = 3D7, P. falciparum, 72 h, parasite screen 2 μg/mL, % growth, replicate 2, read-out: Pf_72h_%Growth_Rep2
[6] = T. gondii, parasite screen 2 μg/mL, % growth, replicate 1, read-out: Tg_72h_%Growth_Rep1
[7] = T. gondii, parasite screen 2 μg/mL, % growth, replicate 2, read-out: Tg_72h_%Growth_Rep2
[8] = 3D7, P. falciparum, 120 h, parasite screen 2 μg/mL, % growth, replicate 1, read-out: Pf_120h_%Growth_Rep1
[9] = 3D7, P. falciparum, 120 h, parasite screen 2 μg/mL, % growth, replicate 2, read-out: Pf_120h_%Growth_Rep2
[10] = library screen at 2 μg/mL, 72 h, % growth, replicate 1
[11] = library screen at 2 μg/mL, 72 h, % growth, replicate 2
[12] = library screen at 2 μg/mL, % growth, replicate 1
[13] = library screen at 2 μg/mL, % growth, replicate 2
[14] = library screen at 2 μg/mL, 120 h, % growth, replicate 1
[15] = library screen at 2 μg/mL, 120 h, % growth, replicate 2
[16] = P. falciparum 3D7, 72 h, parasite screen at 2 μg/mL, % growth, replicate 1
[17] = P. falciparum 3D7, 72 h, parasite screen at 2 μg/mL, % growth, replicate 2
[18] = T. gondii, parasite screen at 2 μg/mL, % growth, replicate 1
[19] = T. gondii, parasite screen at 2 μg/mL, % growth, replicate 2
[20] = P. falciparum 3D7, 120 h, parasite screen at 2 μg/mL, % growth, replicate 1
[21] = P. falciparum 3D7, 120 h, parasite screen at 2 μg/mL, % growth, replicate 2

## CC1(C)C[C@]23[C@@H]4COC(=O)[C@H]2CC[C@H]1[C@@H]3CC4=O [Quadrone]
[1]; [4]
  activity at 2 µg/mL: 19%
[1]; [5]
  activity at 2 µg/mL: 18.9%
[2]; [6]
  percent parasite growth at 2 µg/mL: 48.4%
[2]; [7]
  percent parasite growth at 2 µg/mL: 61.5%
[3]; [8]
  activity at 2 µg/mL: 7%
[3]; [9]
  activity at 2 µg/mL: 13.5%

## C=CC(C)(C)[C@]12C[C@@H]3C(=O)Nc4ccccc4C(=O)N3[C@H]1N(C(C)=O)c1ccccc12 [Acetylaszonalenin]
[1]; [10]
  Pf_72h_%Growth_Rep1: 98.36%
[1]; [11]
  Pf_72h_%Growth_Rep2: 85.99%
[2]; [12]
  Tg_72h_%Growth_Rep1: 84.46%
[2]; [13]
  Tg_72h_%Growth_Rep2: 90.00%
[3]; [14]
  Pf_120h_%Growth_Rep1: 140.03%
[3]; [15]
  Pf_120h_%Growth_Rep2: 96.89%

## O=C1Cc2ccccc2N1 [BIA-O1735]
[1]; [16]
  Pf_72h_%Growth_Rep1: 82.92%
[1]; [17]
  Pf_72h_%Growth_Rep2: 80.95%
[2]; [18]
  Tg_72h_%Growth_Rep1: 124.39%
[2]; [19]
  Tg_72h_%Growth_Rep2: 90.71%
[3]; [20]
  Pf_120h_%Growth_Rep1: 73.62%
[3]; [21]
  Pf_120h_%Growth_Rep2: 127.66%

## CCOC(=O)c1c2ccocc-2oc1=O [BIA-K1981]
[1]; P. falciparum 3D7, 72 h, library screen at 2 μg/mL, % growth, replicate 1
  Pf_72h_%Growth_Rep1: 72.42%
[1]; P. falciparum 3D7, 72 h, library screen at 2 μg/mL, % growth, replicate 2
  Pf_72h_%Growth_Rep2: 90.55%
[2]; T. gondii RH, library screen at 2 μg/mL, % growth, replicate 1
  Tg_72h_%Growth_Rep1: 89.77%
[2]; T. gondii RH, library screen at 2 μg/mL, % growth, replicate 2
  Tg_72h_%Growth_Rep2: 96.78%
[3]; P. falciparum 3D7, 120 h, library screen at 2 μg/mL, % growth, replicate 1
  Pf_120h_%Growth_Rep1: 169.06%
[3]; P. falciparum 3D7, 120 h, library screen at 2 μg/mL, % growth, replicate 2
  Pf_120h_%Growth_Rep2: 89.57%

## CC1(C)[C@H](C(=O)O)N2C(=O)C[C@H]2S1(=O)=O [Sulbactam sodium]
[1]; [4]
  activity at 2 µg/mL: 90.2%
[1]; [5]
  activity at 2 µg/mL: 124%
[2]; [6]
  percent parasite growth at 2 µg/mL: 134%
[2]; [7]
  percent parasite growth at 2 µg/mL: 84.2%
[3]; [8]
  activity at 2 µg/mL: 105%
[3]; [9]
  activity at 2 µg/mL: 104%

## Telomycin
[1]; P. falciparum, 72 h, screen at 2 μg/mL, replicate 1
  Pf_72h_%Growth_Rep1: 87.11%
[1]; P. falciparum, 72 h, screen at 2 μg/mL, replicate 2
  Pf_72h_%Growth_Rep2: 125.88%
[2]; T. gondii, screen at 2 μg/mL, replicate 1
  Tg_72h_%Growth_Rep1: 151.31%
[2]; T. gondii, screen at 2 μg/mL, replicate 2
  Tg_72h_%Growth_Rep2: 89.83%
[3]; P. falciparum, 120 h, screen at 2 μg/mL, replicate 1
  Pf_120h_%Growth_Rep1: 103.58%
[3]; P. falciparum, 120 h, screen at 2 μg/mL, replicate 2
  Pf_120h_%Growth_Rep2: 79.40%

## CC=C(C)C(O)C(C)C=C(C)C=CCC(C)=CCc1nc(OC)c(OC)c(O)c1C (stereo not drawn) [BIA-P1069]
[1]; [16]
  Pf_72h_%Growth_Rep1: 80.36%
[1]; [17]
  Pf_72h_%Growth_Rep2: 61.30%
[2]; [18]
  Tg_72h_%Growth_Rep1: 120.41%
[2]; [19]
  Tg_72h_%Growth_Rep2: 75.10%
[3]; [20]
  Pf_120h_%Growth_Rep1: 92.39%
[3]; [21]
  Pf_120h_%Growth_Rep2: 102.66%

## C/C(=C\c1csc(C)n1)[C@@H]1C[C@@H]2O[C@@H]2CCC[C@H](C)[C@H](O)[C@@H](C)C(=O)C(C)(C)[C@@H](O)CC(=O)O1 [Epothilone A]
[1]; 3D7, 72 h, library screen at 2 μg/mL, 72 h, % growth, replicate 1, read-out: Pf_72h_%Growth_Rep1
  activity at 2 µg/mL: 5.34%
[1]; 3D7, 72 h, library screen at 2 μg/mL, 72 h, % growth, replicate 2, read-out: Pf_72h_%Growth_Rep2
  activity at 2 µg/mL: 6.86%
[2]; library screen at 2 μg/mL, % growth, replicate 1, read-out: Tg_72h_%Growth_Rep1
  percent parasite growth at 2 µg/mL: 2.49%
[2]; library screen at 2 μg/mL, % growth, replicate 2, read-out: Tg_72h_%Growth_Rep2
  percent parasite growth at 2 µg/mL: 2.65%
[3]; 3D7, 120 h, library screen at 2 μg/mL, 120 h, % growth, replicate 1, read-out: Pf_120h_%Growth_Rep1
  activity at 2 µg/mL: -6.26%
[3]; 3D7, 120 h, library screen at 2 μg/mL, 120 h, % growth, replicate 2, read-out: Pf_120h_%Growth_Rep2
  activity at 2 µg/mL: 10.7%

## CC(=O)NCCc1ccc(O)cc1 [Acetyltyramine, N-]
[1]; [10]
  Pf_72h_%Growth_Rep1: 85.43%
[1]; [11]
  Pf_72h_%Growth_Rep2: 84.08%
[2]; [12]
  Tg_72h_%Growth_Rep1: 171.49%
[2]; [13]
  Tg_72h_%Growth_Rep2: 89.14%
[3]; [14]
  Pf_120h_%Growth_Rep1: 85.62%
[3]; [15]
  Pf_120h_%Growth_Rep2: 81.27%
